These results are taken from patent US8110550B2, “HDAC inhibitors and hormone targeted drugs for the treatment of cancer” (University of Maryland, Baltimore, priority 2007, dated 2012).

pIC50: −log10 of the molar value. “Also recorded” adds a separate entry of the source. Like-named read-outs stand apart in the source and are kept apart here.

One assay deals with ER- MDA-MB-231 cells. In words: MTT cell viability / proliferation assay, MDA-MB-231. The format is cell-based. How it is done: (§1) IC50 and IC25 values for inhibitors is calculated from the linear regression line of the plot of percentage inhibition versus log inhibitor concentration. These IC50 values is used for combination or sequencing studies. The effect of combination or sequence of treatment is determined at IC25 of each agent.
(§2) For a cell proliferation assay, 10^4 cells were plated in a 96 well plate and treated with indicated drugs for 6 days. The medium was replaced after 3 days. On day 7, 500 μg/ml of MTT solution was added to each well and cells incubated for 3 hours. The tetrazolium dye trapped inside the mitochondria of the cells was dissolved in DMSO and the absorbance was measured at 560 nm.

For the next assay, the system named is Hs 578T. Briefly: MTT cell proliferation assay, Hs 578T. Format: cell-based. The following applies: Her-2 status +, read-out: IC50 values for inhibition of ER-cell proliferation, Hs 578T. How it is done:
MTT assay was performed to measure viability of breast cancer cells after treatment with various test compounds (Sabnis et al. 2005). IC50 and IC25 values for inhibitors is calculated from the linear regression line of the plot of percentage inhibition versus log inhibitor concentration. These IC50 values is used for combination or sequencing studies. The effect of combination or sequence of treatment is determined at IC25 of each agent.
Exemplary ER negative cell lines (MDA-MB-231) were used. For a cell proliferation assay, 10^4 cells were plated in a 96 well plate and treated with indicated drugs for 6 days. The medium was replaced after 3 days. On day 7, 500 μg/ml of MTT solution was added to each well and cells incubated for 3 hours. The tetrazolium dye trapped inside the mitochondria of the cells was dissolved in DMSO and the absorbance was measured at 560 nm.

The subject of a further assay is aromatase (CYP19). Briefly: Western immunoblotting for aromatase protein expression in MDA-MB-231 cells. Format: cell-based. The following applies: 24 hour treatment. From the text:
(§3) Expression of ER and Aromatase proteins was examined by Western blotting. β-actin was used as a loading control.
In general terms: A western blot detects proteins with antibodies after separation by electrophoresis.

The subject of a further assay is ERα. In words: Western immunoblotting for ERα protein expression in MDA-MB-231 cells. Format: cell-based. As to conditions: 10 nM.
Source text: Protein expression of other ER inducible genes such as c-Myc and PgR can also be examined.
as §3

In assay [1] the test system is aromatase. In words: Radiometric 3H2O release assay for aromatase activity in MDA-MB-231 cells. Format: cell-based. Set-up: aromatase activity: dose or concentration left out as unconfirmed. The following applies: for aromatase activity after pre-treatment: MDA-MB-231 cells. How it is done:
The aromatase activity assay was described by Yue et al. (1997). The expression and activation of aromatase was seen after treatment with HDACi. […] This up-regulation of aromatase activity was dose dependent.
150,000 cells were plated in IMEM without PR with 5% steroid free serum, 1% penicillin-streptomycin and 750 μg/ml G418. Next day the cells were incubated with 0.5 μCi of [1β^3H] androstenedione (Specific activity 23.5 Ci/mmole) in 1 ml of media containing 1% charcoal stripped serum for 18 hours. The medium was then collected and treated with TCA (trichloroacetic acid) to precipitate proteins. The residual steroids in the medium were extracted and removed with chloroform and further treated with a 2.5% charcoal suspension. The ^3H2O in the supernatant was measured using a scintillation counter. In this assay ^3H2O is released during conversion of [1β^3H] Δ4A to estrone, catalyzed by the enzyme aromatase. For pre-treatment studies, cells were plated as described above and then next day pre-treated with indicated agent for 24 hours before incubating with [1β^3H] Δ4A for 18 hours. The activity of the enzyme is corrected for protein concentration in the cells plated and treated.

Another assay concerns MDA-MB-231 xenografts. In words: MDA-MB-231 xenografts in female ovariectomized nude mice. The format is in vivo. The method, then:
The tumors of MDA-MB-231 cells were grown in female ovariectomized nude mice. Sub-confluent cells were collected into Citric Saline, centrifuged and resuspended in Matrigel (10 mg/mL) at ˜2.5×10^7 cells/mL. Each mouse received subcutaneous inoculations in two sites per flank with 100 μL of cell suspension. Mice were then injected subcutaneously daily with 0.3% HPC in 0.9% NaCl (vehicle) until the tumors reached a measurable size (˜150 mm^3). At this point the mice were grouped such that the starting tumor volumes were not statistically different across the groups. The mice were injected with indicated agents (5× weekly) for indicated time. The tumors were measured weekly with calipers and the tumor volumes were calculated using the formula (4/3)πr1^2r2(r1≦r2).

Assay [2] relates to aromatase. In words: 3H2O release assay for aromatase activity in tumor homogenates. Format: in vivo, mice. The following applies: MDA-MB-231 xenograft tumors. The method, then:
(§4) Expression of ER and aromatase proteins was examined by Western blotting. β-actin was used as a loading control. The radiometric ^3H2O release assay for aromatase activity was performed as follows: the tumors were homogenized using ice-cold DPBS and the homogenate was used for the aromatase assay. ^3H2O release assay was performed using [1β^3H] androstenedione (Specific activity 23.5 Ci/mmole). The activity of the enzyme is corrected for protein concentration in the tumor homogenates.

A further assay deals with SKBr3. Briefly: MTT cell proliferation assay, SKBr3. Format: cell-based. As to conditions: Her-2 status ++++, read-out: IC50 values for inhibition of ER-cell proliferation, SKBr3. The method, then: as §1, §2
Background: Tetrazolium assays rely on reduction of a dye to a coloured formazan, in cell work by metabolically active cells.

In assay [3] the test system is ERα, aromatase and androgen receptor. In words: Western blotting of xenograft tumors. Format: in vivo, mice. The following applies: MDA-MB-231 xenograft tumors. How it is done: as §4
Setting [4] is: Homo sapiens, MDA-MB-231, Her-2 status −, read-out: IC50 values for inhibition of ER-cell proliferation, MDA-MB-231.

With `N#Cc1ccc(C(c2ccc(C#N)cc2)n2cncn2)cc1` [letrozole], the pIC50 in the assay on ER- MDA-MB-231 cells (Homo sapiens, MDA-MB-231, MDA-MB-231 cells, combined with MS-275 (0.1 nM), read-out: IC50 of letrozole for cell growth inhibition) is 7.81; in the assay with ER- MDA-MB-231 cells (Homo sapiens, MDA-MB-231, MDA-MB-231 cells, combined with SAHA, read-out: IC50 of letrozole for cell growth inhibition), 5.95. The “cell growth inhibition in combination” value in the assay on ER- MDA-MB-231 cells (MDA-MB-231 cells, letrozole combined with MS-275 (0.1 nM)) is “synergistically inhibit cell growth in a dose dependent manner”; in the assay on ER- MDA-MB-231 cells (MDA-MB-231 cells, letrozole combined with SAHA) it was “synergistically inhibit cell growth in a dose dependent manner”. For the same compound, the growth inhibitory effect result with ER- MDA-MB-231 cells (MDA-MB-231 cells, single agent) is recorded as “refractory; also recorded: did not inhibit growth”.

In the case of `CC/C(=C(\c1ccccc1)c1ccc(OCCN(C)C)cc1)c1ccccc1` [tamoxifen], in the assay with ER- MDA-MB-231 cells (MDA-MB-231 cells, single agent), the growth inhibitory effect entry was “refractory”.

With `O=C(CCCCCCC(=O)Nc1ccccc1)NO` [SAHA, N′-hydroxy-N-phenyl-octanediamide], the pIC50 in the assay with Hs 578T (Homo sapiens, Hs-578T) is 7.77. Also, the “expression of aromatase up-regulated” value with aromatase (CYP19) (10 nM) was 1.77 fold. Moreover, in the assay on ERα, the “protein expression of ERα up-regulated” value came out at 9.9 fold. Also, the “aromatase activity after pre-treatment” value in the assay on aromatase [1] was “upregulated”.

With “N-(2-aminophenyl)-4-(N-(pyridin-3-ylmethoxycarbonyl)aminomethyl) benzamide [MS-275]”, the pIC50 was 7.55 in the assay on Hs 578T; 7.09 with ER- MDA-MB-231 cells (MDA-MB-231 cells, single agent, read-out: IC50, growth inhibition); 10.17 in the assay with SKBr3. Also, the “growth of MDA-MB-231 xenografts” value in the assay on MDA-MB-231 xenografts (5x weekly dosing) is reported as “inhibits growth of MDA-MB-231 xenografts”. Also, the “effectiveness by route of administration” value in the assay on MDA-MB-231 xenografts (oral versus other route) is “more effective when given orally”. Also, the uterine weight result in the assay with MDA-MB-231 xenografts (ovariectomized mice, bioassay for estrogenic/antiestrogenic effects) was “does not affect the uterine weight”. Moreover, the “expression of aromatase up-regulated” value with aromatase (CYP19) (10 nM) turned out to be 2.6 fold. Besides, in the assay on ERα, the “protein expression of ERα up-regulated” value amounted to 8 fold. The growth inhibitory effect result in the assay on ER- MDA-MB-231 cells (MDA-MB-231 cells, single agent) is reported as “significantly inhibited”. In addition, the intra-tumoral aromatase activity result with aromatase [2] was “upregulates intra-tumoral aromatase activity”. The “expression of ERα, aromatase and androgen receptor in tumors” value in [3] is on record as “upregulates”. The “aromatase activity after pre-treatment” value with aromatase [1] was “upregulated”. Moreover, the aromatase activity in the assay with aromatase [1] (then 1β-3H-androstenedione 18 hours, basal 3.02) is 15.193 pmoles/μg of protein/hour.

`C=C1C[C@@H]2[C@H](CC[C@]3(C)C(=O)CC[C@@H]23)[C@@]2(C)C=CC(=O)C=C12` [exemestane]: in the assay on ER- MDA-MB-231 cells (MDA-MB-231 cells, single agent), the growth inhibitory effect result was “refractory”.

For the compound `CC(C)(C#N)c1cc(Cn2cncn2)cc(C(C)(C)C#N)c1` [anastrozole], the growth inhibitory effect result in the assay with ER- MDA-MB-231 cells (MDA-MB-231 cells, single agent) is on record as “refractory”.

In the case of `CCCC(=O)O` [BA, butyric acid], the pIC50 is 1.17 with Hs 578T (Homo sapiens, Hs-578T); 1.69 with ER- MDA-MB-231 cells (setting [4]); 1.69 in the assay with ER- MDA-MB-231 cells (Homo sapiens, MDA-MB-231, MDA-MB-231 cells, single agent, read-out: IC50, inhibition of cell growth); 4.77 with SKBr3 (Homo sapiens, SK-BR-3). Besides, the “expression of aromatase up-regulated” value in the assay with aromatase (CYP19) (1 μM) was found to be 1.2 fold. Besides, in the assay on ER- MDA-MB-231 cells (MDA-MB-231 cells, single agent), the growth inhibitory effect entry is given as “inhibited”. For the same compound, the “aromatase activity after pre-treatment” value with aromatase [1] is “upregulated”.

With `C[C@]12CC[C@@H]3c4ccc(O)cc4C[C@@H](CCCCCCCCC[S+]([O-])CCCC(F)(F)C(F)(F)F)[C@H]3[C@@H]1CC[C@@H]2O` (stereo partly drawn) [fulvestrant], the growth inhibitory effect entry in the assay with ER- MDA-MB-231 cells (MDA-MB-231 cells, single agent) is “refractory”.

Regarding `CC(=O)Nc1ccc(C(=O)Nc2ccccc2N)cc1` [CJ-994, 4-acetylamino-N-(2′-aminophenyl)-benzamide], the pIC50 in the assay with Hs 578T (Homo sapiens, Hs-578T) is 6.91; in the assay on ER- MDA-MB-231 cells (setting [4]), 4.01; in the assay with SKBr3 (Homo sapiens, SK-BR-3), 5.07.
